Values of other authors in US20050260613A1 (priority 2003, published 2005).

Tested on: AD patients
Conditions: presence of the ApoE4 allele

Nc1c2c(nc3ccccc13)CCCC2 [tacrine]
response to treatment in presence of the ApoE4 polymorphism: reduced response
